Laboratory results as given in US20240398821A1, “FLAVONOID DERIVATIVES WITH GABAA RECEPTOR ACTIVITY AND METHODS OF USE” (RUTGERS, THE STATE UNIVERSITY OF NEW JERSEY, priority 2021, published 2024).

What was measured:
[1] = biological target: T1, GABAA α4θ3δ (Homo sapiens, UniProt O14764+P28472+P48169); assay: SyncroPatch automated patch-clamp electrophysiology, PAM mode; type: cell-based; settings: for Potency, α4βδ (also printed α4βy), % in brackets: bracketed % beside EC50/IC50
T1 construct: expressed in transfected cells
T1 sequence (P48169 36-554): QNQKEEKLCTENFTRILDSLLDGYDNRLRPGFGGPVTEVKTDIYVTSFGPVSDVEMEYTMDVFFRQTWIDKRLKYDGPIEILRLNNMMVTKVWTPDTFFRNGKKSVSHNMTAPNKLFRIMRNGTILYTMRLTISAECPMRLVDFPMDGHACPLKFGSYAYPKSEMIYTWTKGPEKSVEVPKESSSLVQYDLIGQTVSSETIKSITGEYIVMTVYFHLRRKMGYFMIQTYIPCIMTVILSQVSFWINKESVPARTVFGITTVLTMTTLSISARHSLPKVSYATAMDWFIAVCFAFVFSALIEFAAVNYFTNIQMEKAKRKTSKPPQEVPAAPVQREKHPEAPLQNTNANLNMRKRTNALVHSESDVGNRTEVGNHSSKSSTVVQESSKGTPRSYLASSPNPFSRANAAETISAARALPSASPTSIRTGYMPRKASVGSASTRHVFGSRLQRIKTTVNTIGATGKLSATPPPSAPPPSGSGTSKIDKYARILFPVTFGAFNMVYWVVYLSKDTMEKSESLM
T1 sequence (P28472 26-473): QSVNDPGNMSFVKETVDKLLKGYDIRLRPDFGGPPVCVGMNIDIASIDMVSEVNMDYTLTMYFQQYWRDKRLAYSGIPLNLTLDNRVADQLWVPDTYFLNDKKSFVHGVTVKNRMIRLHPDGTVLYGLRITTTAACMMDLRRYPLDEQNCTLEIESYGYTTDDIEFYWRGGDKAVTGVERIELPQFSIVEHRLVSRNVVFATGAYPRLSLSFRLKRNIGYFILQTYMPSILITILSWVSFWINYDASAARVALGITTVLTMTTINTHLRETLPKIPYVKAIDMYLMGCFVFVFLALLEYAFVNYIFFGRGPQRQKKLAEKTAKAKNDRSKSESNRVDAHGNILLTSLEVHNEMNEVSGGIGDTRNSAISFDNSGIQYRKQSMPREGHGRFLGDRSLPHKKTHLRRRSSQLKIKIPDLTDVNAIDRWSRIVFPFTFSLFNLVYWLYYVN
T1 sequence (O14764 17-452 limits assumed): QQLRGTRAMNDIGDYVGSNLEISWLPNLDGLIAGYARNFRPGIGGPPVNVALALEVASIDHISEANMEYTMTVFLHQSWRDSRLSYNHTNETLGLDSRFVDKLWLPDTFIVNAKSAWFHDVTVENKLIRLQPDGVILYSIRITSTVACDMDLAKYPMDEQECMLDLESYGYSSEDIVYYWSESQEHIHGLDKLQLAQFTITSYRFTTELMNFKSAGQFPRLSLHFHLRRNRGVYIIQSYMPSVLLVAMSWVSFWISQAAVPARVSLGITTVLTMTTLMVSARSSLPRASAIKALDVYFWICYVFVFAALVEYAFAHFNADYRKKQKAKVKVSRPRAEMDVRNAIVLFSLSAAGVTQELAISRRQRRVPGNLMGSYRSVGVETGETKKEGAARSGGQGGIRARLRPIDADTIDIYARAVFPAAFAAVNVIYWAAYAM
Protocol: (§1) To evaluate GABAA receptor activity, compounds were evaluated with electrophysiology studies of against 4 GABAA subtypes (GABAA α1β2γ2L, α2θ3γ2L, α5θ3γ2L and α4θ3δ) in positive allosteric modulator (PAM) mode using the SyncroPatch automated platform at room temperature. […] The rapid addition protocol was used, in which compound is rapidly applied and then washed off from the cell. 0.3% DMSO was used as negative control.
(§2) Positive control: 5-point concentration-response curve of allopregnanolone ([…]).
(§3) Negative control: 0.3% DMSO
(§4) Each compound is tested across the plate with a single concentration per cell. A minimum of 2 wells are obtained per each concentration.
(§5) Powder stocks and DMSO stocks are stored at room temperature (in the dark). The powder stocks are diluted to 3 mM in 100% DMSO on the day of experiment.
(§6) SyncroPatch specific solutions are used throughout the assay. DMSO remains constant at 0.3% in the external solution throughout the assay.
(§7) The rapid addition protocol is used, in which compound is rapidly applied and then washed off from the cell. […] After a further wash step, maximum GABA (10 mM) is applied.
(§8) The voltage protocol generation and data collection are performed with PatchController384 V1.9.0 and Data Controller V1.9.0.
(§9) The fold increase is generated using the following equation, (Icomp/Icontrol)−1, where Icomp is the current amplitude in the presence of the compound and Icontrol is the current amplitude in the presence of agonist alone. […] The % Emax relative to Allopregnanolone is generated using the following equation, • [(IMaxComp/IAveMaxCtrl)*100], where IMaxComp is the individual maximum fold increase in current for each compound and IAveMaxCtrl is the average maximum fold increase generated in the presence of the control, allopregnanolone.
(§10) After a further wash step, maximum GABA (10 mM) was applied. Allopregnanolone was utilized as a positive control.

[2] = biological target: T2, GABAA α1β2γ2L (Homo sapiens, UniProt P14867+P18507+P47870); assay: as above; type: cell-based; settings: for Potency, α1βy, % in brackets: bracketed % beside EC50/IC50
T2 construct: expressed in transfected cells
T2 sequence (P14867 28-456): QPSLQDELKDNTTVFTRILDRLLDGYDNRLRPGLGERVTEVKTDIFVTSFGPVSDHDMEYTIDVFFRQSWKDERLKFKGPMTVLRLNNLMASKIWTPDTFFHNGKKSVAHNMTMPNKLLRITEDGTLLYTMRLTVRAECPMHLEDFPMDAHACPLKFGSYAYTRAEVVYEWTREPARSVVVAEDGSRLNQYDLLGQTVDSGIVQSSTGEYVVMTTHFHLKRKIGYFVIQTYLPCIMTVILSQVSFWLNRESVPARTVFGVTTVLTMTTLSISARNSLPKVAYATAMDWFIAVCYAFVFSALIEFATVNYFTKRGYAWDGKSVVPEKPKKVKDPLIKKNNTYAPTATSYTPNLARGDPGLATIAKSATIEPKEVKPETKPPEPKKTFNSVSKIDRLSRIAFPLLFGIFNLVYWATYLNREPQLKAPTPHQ
T2 sequence (P47870 25-512 limits assumed): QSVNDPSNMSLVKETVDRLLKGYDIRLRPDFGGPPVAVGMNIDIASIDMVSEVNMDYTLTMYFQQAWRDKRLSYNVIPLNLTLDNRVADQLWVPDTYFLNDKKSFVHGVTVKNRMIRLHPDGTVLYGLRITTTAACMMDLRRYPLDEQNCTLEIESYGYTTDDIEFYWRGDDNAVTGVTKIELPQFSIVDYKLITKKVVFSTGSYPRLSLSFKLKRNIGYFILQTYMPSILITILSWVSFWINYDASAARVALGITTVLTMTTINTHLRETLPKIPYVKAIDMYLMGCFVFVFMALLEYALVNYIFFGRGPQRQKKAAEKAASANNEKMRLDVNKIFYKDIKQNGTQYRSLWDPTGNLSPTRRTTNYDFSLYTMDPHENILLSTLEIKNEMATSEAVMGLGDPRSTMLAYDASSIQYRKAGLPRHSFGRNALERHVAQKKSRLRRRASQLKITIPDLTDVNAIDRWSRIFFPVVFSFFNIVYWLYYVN
T2 sequence (P18507 40-475): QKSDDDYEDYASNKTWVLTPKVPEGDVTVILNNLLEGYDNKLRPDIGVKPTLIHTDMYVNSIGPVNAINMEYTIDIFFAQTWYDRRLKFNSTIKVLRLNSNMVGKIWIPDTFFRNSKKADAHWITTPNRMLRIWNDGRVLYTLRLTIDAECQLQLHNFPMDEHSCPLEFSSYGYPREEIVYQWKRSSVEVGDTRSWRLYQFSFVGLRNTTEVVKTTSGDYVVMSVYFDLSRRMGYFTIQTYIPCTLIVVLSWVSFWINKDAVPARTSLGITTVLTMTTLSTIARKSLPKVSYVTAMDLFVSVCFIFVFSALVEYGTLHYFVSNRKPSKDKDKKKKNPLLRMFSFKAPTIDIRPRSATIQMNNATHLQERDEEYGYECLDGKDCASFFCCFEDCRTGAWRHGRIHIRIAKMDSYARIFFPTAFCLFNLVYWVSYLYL
Protocol: as §1, §2, §3, §4, §5, §6, §7, §8, §9, §10

[3] = system: GABAA receptor; assay: Preliminary classification of GABAAR modulation from electrophysiology against 4 GABAA subtypes; type: cell-based; settings: from the four subtype results
Text: As an assessment for potential anxiolytic activity, compounds were screened for in vitro GABAA receptor activity utilizing electrophysiology studies. This is a well-established method of assessing activity of GABAA receptor positive allosteric modulators (PAMs) with known anxiolytic activity. The link between anxiolytic and sedative activity associated with α1/2/3βγ GABAAR subtypes is also well-established by previous studies. and there is a well-established history of clinical efficacy, utility, and risks associated with the use of full GABAAR PAMs [i.e. benzodiazepines (BZDs)] in the treatment of anxiety and seizure disorders.
(§11) To evaluate GABAA receptor activity, compounds were evaluated with electrophysiology studies of against 4 GABAA subtypes (GABAA α1β2γ2L, α2θ3γ2L, α5θ3γ2L and α4θ3δ) in positive allosteric modulator (PAM) mode using the SyncroPatch automated platform at room temperature. A 6-point concentration-response curve of each test compound (10, 1, 0.1, 0.01, 0.001, or 0.0001 μM in DMSO). The rapid addition protocol was used, in which compound is rapidly applied and then washed off from the cell. 0.3% DMSO was used as negative control.
The fold increase is generated using the following equation, (Icomp/Icontrol)−1, where Icomp is the current amplitude in the presence of the compound and Icontrol is the current amplitude in the presence of agonist alone. This builds an EC50 concentration-response curve, where 0 represents no PAM activity and >0 represents PAM activity. If a “bell-shape curve” is observed at the higher concentrations, showing a reduction in activity in comparison to previous concentrations, then to allow for a more accurate curve fit, these concentrations are removed from the graphs where necessary and noted in the compound table. The % Emax relative to Allopregnanolone is generated using the following equation, • [(IMaxComp/IAveMaxCtrl)*100], where IMaxComp is the individual maximum fold increase in current for each compound and IAveMaxCtrl is the average maximum fold increase generated in the presence of the control, allopregnanolone.

[4] = biological target: T3, GABAA α2θ3γ2L (Homo sapiens, UniProt P18507+P28472+P47869); assay: SyncroPatch automated patch-clamp electrophysiology, PAM mode; type: cell-based; settings: for Potency, α2βy, *EC50 / EC50: PAM mode, GABA EC10-20, 6-point curve up to 10 μM, EC50 called extrapolated; for EC50: read-out: Potency, α2βy, *EC50; for Potency, α2βy, % in brackets: bracketed % beside EC50/IC50
T3 construct: expressed in transfected cells
T3 sequence (P47869 29-451): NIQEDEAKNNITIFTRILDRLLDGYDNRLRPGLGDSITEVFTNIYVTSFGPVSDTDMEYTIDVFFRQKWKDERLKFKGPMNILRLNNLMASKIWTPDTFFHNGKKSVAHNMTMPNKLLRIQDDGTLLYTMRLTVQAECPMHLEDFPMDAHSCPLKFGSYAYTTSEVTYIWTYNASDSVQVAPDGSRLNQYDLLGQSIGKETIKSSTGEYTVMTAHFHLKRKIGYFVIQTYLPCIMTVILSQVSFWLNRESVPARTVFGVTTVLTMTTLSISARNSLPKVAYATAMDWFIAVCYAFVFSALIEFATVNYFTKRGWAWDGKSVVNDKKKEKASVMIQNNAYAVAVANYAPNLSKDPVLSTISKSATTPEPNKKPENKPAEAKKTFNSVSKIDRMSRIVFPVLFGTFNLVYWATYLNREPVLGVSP
T3 sequence (P28472 26-473): as the sequence (P28472 26-473) above
T3 sequence (P18507 40-475): as the sequence (P18507 40-475) above
Protocol: as §11
(§12) Test compounds: 6-point concentration-response curve of each test compound (10, 1, 0.1, 0.01, 0.001, 0.0001 μM in DMO).
as §2, §3, §4, §5, §6
(§13) The rapid addition protocol is used, in which compound is rapidly applied and then washed off from the cell. To test for PAM activity, the agonist GABA EC10-20 is applied three times (with wash steps in-between) as a control and to show activation reproducibility, followed by a 1 to 2 minute pre-incubation of client compound and then re-application of GABA EC10-20 in the presence of client compound. After a further wash step, maximum GABA (10 mM) is applied.
(§14) Automated patch clamp-recordings are performed using the SyncroPatch 384i. The voltage protocol generation and data collection are performed with PatchController384 V1.9.0 and Data Controller V1.9.0.
as §9, with “alone. This builds an EC50 concentration-response curve, where 0 represents no PAM activity and >0 represents PAM activity.” for “alone.”
(§15) To test for PAM activity, the agonist GABA EC 10-20 was applied three times (with wash steps in-between) as a control and to show activation reproducibility, followed by a 1 to 2 minutes pre-incubation of client compound and then re-application of GABA EC 10-20 in the presence of client compound. After a further wash step, maximum GABA (10 mM) was applied. Allopregnanolone was utilized as a positive control. FIGS. 5A and 5B show for dose response of EC2-118 in comparison to that of allopregnanolone (positive control).

[5] = biological target: T4, GABAA α5θ3γ2L (Homo sapiens, UniProt P18507+P28472+P31644); assay: as above; type: cell-based
T4 construct: expressed in transfected cells
T4 sequence (P31644 32-462): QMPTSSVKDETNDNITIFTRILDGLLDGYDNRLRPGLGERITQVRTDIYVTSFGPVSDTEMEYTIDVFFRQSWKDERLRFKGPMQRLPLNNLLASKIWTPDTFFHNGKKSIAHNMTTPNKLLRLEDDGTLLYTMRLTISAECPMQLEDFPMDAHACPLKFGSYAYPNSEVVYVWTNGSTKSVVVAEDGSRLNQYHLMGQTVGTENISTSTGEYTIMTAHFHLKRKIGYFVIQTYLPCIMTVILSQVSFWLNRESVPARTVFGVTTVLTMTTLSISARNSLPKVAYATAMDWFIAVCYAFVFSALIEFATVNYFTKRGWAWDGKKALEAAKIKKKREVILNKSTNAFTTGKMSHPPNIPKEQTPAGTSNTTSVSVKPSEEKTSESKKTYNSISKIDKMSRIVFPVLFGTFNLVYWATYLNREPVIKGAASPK
T4 sequence (P28472 26-473): as the sequence (P28472 26-473) above
T4 sequence (P18507 40-475): as the sequence (P18507 40-475) above
Protocol: as §11, §12, §2, §3, §4, §5, §6, §13, §14
as §9, with “alone. This builds an EC50 concentration-response curve, where 0 represents no PAM activity and >0 represents PAM activity.” for “alone.”
as §15

[6] = system: anxiety; assay: Open field test (OFT) and elevated plus maze (EPM), IP administration; type: in vivo, rats
Protocol: FIG. 7 is a representation of rat movements during an open field test. Increased time in the open arms signifies anti-anxiety activity. […] The purple lines represent the motion of the rat.
In vivo studies in rats were conducted in the Bello laboratory as preliminary screening for activity of EC2-118. Male and female rats were exposed to an open field test (OFT) and elevated plus maze (EPM) 7 days apart (Kshatriya et al., 2020). Each group (n=8/group, […]) received IP injection 30 min prior to IP dosing of EC2-118 or vehicle control. We performed OFT and EPM in 52 adult SD rats (26 male/26 female). The groups were as follow vehicle (0.9% Saline, 4% Tween 80, and 4% DMSO; n=9 males; n=10 females), 3.95 mg/kg (n=10 males; n=8 females), 12.5 mg/kg (n=7 males, females n=8).

[7] = system: loss-of-righting-reflex; assay: Loss-of-righting-reflex (LORR), alone and with alcohol; type: in vivo; settings: rats
Protocol: Rats were given EC2-118 (3.95 mg/kg IP) and alcohol (3 g/kg) and assessed for duration of loss-of-righting-reflex (LORR). […] The effects of EC2-118 (12.5 mg/kg IP) on alcohol-induced LORR were not determined.

[8] = PAM mode, GABA EC10-20, 6-point curve up to 10 μM
[9] = PAM mode, GABA EC10-20, 6-point curve up to 10 μM, EC50 called extrapolated

## O=c1cc(-c2cccc([N+](=O)[O-])c2)oc2ccc(Br)cc12 [6-bromo-3′-nitroflavone, reference compound]
[1]
  IC50: > 10 µM
  Potency, α4βδ (also printed α4βy), % in brackets: −30%
[2]
  IC50: 0.0059 µM
  Potency, α1βy, % in brackets: −21%
[3]
  Preliminary Classification of type of GABAAR modulation: Partial α1 NAM
[4]
  Potency, α2βy, *EC50: N.R.
[5]; [8]
  Potency, α5βy, *EC50: N.R.

## O=C1c2cc(Br)ccc2OC(c2ccccc2)C1(CO)CO (stereo not drawn) [EC2-52, 6-bromo-3,3-bis(hydroxymethyl)-2-phenylchroman-4-one]
[1]; [8]
  Potency, α4βδ (also printed α4βy), *EC50: N.R.
[2]; [9]
  Potency, α1βy, *EC50: N.R.
[3]
  Preliminary Classification of type of GABAAR modulation: Partial α5 GABAAR PAM
[4]
  Potency, α2βy, *EC50: N.R.
[5]; PAM mode, GABA EC10-20, 6-point curve up to 10 μM, read-out: Potency, α5βy, *EC50
  EC50: 1.92 µM
[5]; bracketed % beside EC50/IC50
  Potency, α5βy, % in brackets: +22%

## O=C1c2ccccc2OC(c2cccc([N+](=O)[O-])c2)C1(CO)CO (stereo not drawn) [EC2-104, 3,3-bis(hydroxymethyl)-2-(3-nitrophenyl)chroman-4-one]
[1]; PAM mode, GABA EC10-20, 6-point curve up to 10 μM, read-out: Potency, α4βδ (also printed α4βy), *EC50
  EC50: > 10 µM
[1]
  Potency, α4βδ (also printed α4βy), % in brackets: +30%
[2]; [9]
  Potency, α1βy, *EC50: N.R.
[3]
  Preliminary Classification of type of GABAAR modulation: Partial α2 GABAAR PAM
[4]
  EC50: 11.8 µM
  Potency, α2βy, % in brackets: +28%
[5]; [8]
  Potency, α5βy, *EC50: N.R.

## O=C1NC(c2cccc([N+](=O)[O-])c2)Nc2ccc(Br)cc21 (stereo not drawn) [EC2-117, 6-bromo-2-(3-nitrophenyl)-2,3-dihydroquinazolin-4(1H)-one]
[1]; [8]
  Potency, α4βδ (also printed α4βy), *EC50: α1 βy (N.R.) α2βy (N.R.) α5βy (N.R.) α4ßy (N.R.)
[2]; [9]
  Potency, α1βy, *EC50: α1 βy (N.R.) α2βy (N.R.) α5βy (N.R.) α4ßy (N.R.)
[3]
  Preliminary Classification of type of GABAAR modulation: Not active
[4]
  Potency, α2βy, *EC50: α1 βy (N.R.) α2βy (N.R.) α5βy (N.R.) α4ßy (N.R.)
[5]; [8]
  Potency, α5βy, *EC50: α1 βy (N.R.) α2βy (N.R.) α5βy (N.R.) α4ßy (N.R.)

## O=C1NC(c2cccc([N+](=O)[O-])c2)Oc2ccc(Br)cc21 (stereo not drawn) [EC2-118, 6-bromo-2-(3-nitrophenyl)-2,3-dihydro-4H-benzo[e][1,3]oxazin-4-one]
[1]; [8]
  Potency, α4βδ (also printed α4βy), *EC50: N.R.
[2]; PAM mode, GABA EC10-20, 6-point curve up to 10 μM, EC50 called extrapolated, read-out: Potency, α1βy, *EC50
  EC50: 0.136 µM
[2]
  Potency, α1βy, % in brackets: +29%
[6]; 3.95 mg/kg IP, male and female SD rats, two-way ANOVA
  Anxiolytic effect in OFT and EPM vs vehicle control: significant differences between 3.95 mg/kg dose and vehicle control
[6]; 12.5 mg/kg IP, rats
  Effect in the open field test (OFT): did not exhibit a significant effect
  Lethargy (observation): increased lethargy
[3]
  Preliminary Classification of type of GABAAR modulation: Partial α1/2 GABAAR PAM
[4]
  EC50: 0.125 µM
  Potency, α2βy, % in brackets: +26%
[5]; [8]
  Potency, α5βy, *EC50: N.R.
[7]; 3.95 mg/kg IP with alcohol 3 g/kg
  Impact on alcohol-induced LORR (duration): did not have a significant impact on alcohol-induced LORR
[7]; 3.95 mg/kg, 12.95 IP
  Induction of LORR by compound alone: did not induce an LORR

## O=C1c2cc(Br)ccc2OC(c2cccc([N+](=O)[O-])c2)C1(CO)CO (stereo not drawn) [EC2-124]
[1]; [8]
  Potency, α4βδ (also printed α4βy), *EC50: α1ßy (N.R.) α2βy (N.R.) α5βy (N.R.) α4βy (N.R.)
[2]; [9]
  Potency, α1βy, *EC50: α1ßy (N.R.) α2βy (N.R.) α5βy (N.R.) α4βy (N.R.)
[3]
  Preliminary Classification of type of GABAAR modulation: Not Active
[4]
  Potency, α2βy, *EC50: α1ßy (N.R.) α2βy (N.R.) α5βy (N.R.) α4βy (N.R.)
[5]; [8]
  Potency, α5βy, *EC50: α1ßy (N.R.) α2βy (N.R.) α5βy (N.R.) α4βy (N.R.)
